The source of these data is patent US5871946A, “Method for determining activity of enzymes in metabolically active whole cells” (priority 1995, dated 1999).

The structures appear in SMILES notation. Numbered stars: 1 amine (or outer) side, 2 acyl side, 3 side chain; on linkers, the order of the positions; unused ones are H or OH. Bridge positions count the residues as written; N and C are the ends. Peptide text beside a SMILES is read from it. I, II: the chains in the order shown. Rhodamine110 = O=C1OC2(c3ccc(N[*:1])cc3Oc3cc(N[*:2])ccc32)c2ccccc21

Experiment [1] deals with MONOCYTES
Put plainly: Disease to normal ratio of enzyme activity, monocytes (Table 5). Format: cell-based, human. An excerpt: (§1) A normal in house adult donor pool was drawn, recording sex and determining that no known disease state was present at the time of sample draw. Criteria for rejecting samples included patients under medication, patients with infection or inflammation of any type, colds and flu as well as any known medical illness such as cancer, heart ailment and high blood pressure. A donor list of 75 patients has been developed and a mean and 2 sd range established. A subgroup of "super normals" was developed from this list by examining the 75 patients to determine which group falls closest to the mean for all enzymes in all cell types tested. These patients were used as the "wellness index" or best group of "normalcy" patients. If a study required the use of children or newborns then this same format was used to develop a data base for these age groups.

The subject of experiment [2] is LYMPHOCYTES
The experiment is described as follows: Disease to normal ratio of enzyme activity, lymphocytes (Table 5). The class given is cell-based, human.
Description: as §1

[3] abbreviates: Inflam. Bowel Dis., monocytes section.

Turning to `C[C@H](N)C(=O)Nc1ccc2c(c1)Oc1cc(NC(=O)[C@H](C)N)ccc1C21OC(=O)c2ccccc21` [ALA, (Ala)2 Rho 110], the “Ratio of disease to normal” value in experiment [1] (setting [3]) stood at 1.43; in experiment [1] (JRA, monocytes), 1.31; in experiment [1] (Kawasaki's, monocytes) it was 1.36; in experiment [1] (Lupus, monocytes) it was 6.17; in experiment [1] (Rheumatic Fever, monocytes), 1.08; in experiment [2] (Dermatomyositis), 1.16. Also, the “Ratio of disease to normal” value is listed as 1.53 in experiment [2] (Inflam. Bowel Dis.); 1.59 in experiment [2] (JRA); 1.05 in experiment [2] (Kawasaki's); 1.16 in experiment [2] (Lupus); 1.18 in experiment [2] (Rheumatic Fever).

As for `O=C1OC2(c3ccc(OP(=O)(O)O)cc3Oc3cc(OP(=O)(O)O)ccc32)c2ccccc21` [DPO4, (PO4)2 fluorescein], the “Ratio of disease to normal” value in experiment [1] (JRA, monocytes) stood at 1.13; in experiment [1] (Rheumatic Fever, monocytes), 1.09.

For the compound `CC(=O)Oc1ccc2c(c1)Oc1cc(OC(C)=O)ccc1C21OC(=O)c2ccccc21` [FDA, fluorescein diacetate, reference compound], the “Ratio of disease to normal” value in experiment [1] (JRA, monocytes) is listed as 1.55; in experiment [1] (Lupus, monocytes), 1.01; in experiment [2] (Dermatomyositis), 1.06; in experiment [2] (JRA), 1.17; in experiment [2] (Lupus), 1.01.

With `CC(=O)Oc1ccc2c(c1)Oc1cc(OC(C)=O)ccc1C21OC(=O)c2ccccc21` [FDA-NAF, reference compound], the “Ratio of disease to normal” value in experiment [1] (Dermatomyositis, monocytes) was determined as 1.03; in experiment [1] (setting [3]), 1.11; in experiment [1] (JRA, monocytes) it was 0.35; in experiment [1] (Kawasaki's, monocytes) it was 0.58; in experiment [1] (Lupus, monocytes), 0.83; in experiment [1] (Rheumatic Fever, monocytes) it was 0.89. The “Ratio of disease to normal” value turned out to be 1.14 in experiment [2] (Dermatomyositis); 0.89 in experiment [2] (Inflam. Bowel Dis.); 0.21 in experiment [2] (JRA); 0.30 in experiment [2] (Kawasaki's); 0.74 in experiment [2] (Lupus); 0.97 in experiment [2] (Rheumatic Fever).

As to `C[C@H](NC(=O)CNC(=O)[C@H](Cc1ccccc1)NC(=O)CN)C(=O)Nc1ccc2c(c1)Oc1cc(NC(=O)[C@H](C)NC(=O)CNC(=O)[C@H](Cc3ccccc3)NC(=O)CN)ccc1C21OC(=O)c2ccccc21` [GFGA, (Gly-Phe-Gly-Ala)2 Rho 110] (I: H-GFGA / II: H-GFGA; linker I:C-II:C via Rhodamine110), the “Ratio of disease to normal” value in experiment [1] (Dermatomyositis, monocytes) was found to be 2.01; in experiment [1] (setting [3]), 3.42; in experiment [1] (JRA, monocytes) it was 2.29; in experiment [1] (Kawasaki's, monocytes), 1.77; in experiment [1] (Lupus, monocytes) it was 2.18; in experiment [1] (Rheumatic Fever, monocytes), 1.36. Also, the “Ratio of disease to normal” value was found to be 2.14 in experiment [2] (Dermatomyositis); 2.16 in experiment [2] (Inflam. Bowel Dis.); 2.03 in experiment [2] (JRA); 2.15 in experiment [2] (Kawasaki's); 1.25 in experiment [2] (Lupus); 2.14 in experiment [2] (Rheumatic Fever).

In the case of `NCC(=O)Nc1ccc2c(c1)Oc1cc(NC(=O)CN)ccc1C21OC(=O)c2ccccc21` [GLY, (Gly)2 Rho 110], the “Ratio of disease to normal” value is 1.01 in experiment [1] (Dermatomyositis, monocytes); 1.84 in experiment [1] (setting [3]); 1.11 in experiment [1] (JRA, monocytes); 3.83 in experiment [1] (Kawasaki's, monocytes); 2.06 in experiment [1] (Rheumatic Fever, monocytes); 1.97 in experiment [2] (Inflam. Bowel Dis.). Besides, the “Ratio of disease to normal” value turned out to be 1.94 in experiment [2] (Kawasaki's), 1.64 in experiment [2] (Lupus) and 2.09 in experiment [2] (Rheumatic Fever).

As for `C[C@H](NC(=O)[C@@H](N)CCCCN)C(=O)Nc1ccc2c(c1)Oc1cc(NC(=O)[C@H](C)NC(=O)[C@@H](N)CCCCN)ccc1C21OC(=O)c2ccccc21` [KA, (Lys-Ala)2 Rho 110], the “Ratio of disease to normal” value in experiment [1] (Dermatomyositis, monocytes) was 1.04; in experiment [1] (setting [3]), 1.95; in experiment [1] (Kawasaki's, monocytes), 2.22; in experiment [1] (Lupus, monocytes), 6.93; in experiment [1] (Rheumatic Fever, monocytes) it was 2.39; in experiment [2] (Dermatomyositis) it was 1.39. In addition, the “Ratio of disease to normal” value in experiment [2] (Inflam. Bowel Dis.) came to 1.75; in experiment [2] (Kawasaki's) it was 1.53; in experiment [2] (Lupus) it was 1.93; in experiment [2] (Rheumatic Fever), 1.19.

For the compound `C[C@H](NC(=O)[C@@H](N)CCCCN)C(=O)Nc1ccc2c(c1)Oc1cc(NC(=O)[C@H](C)NC(=O)[C@@H](N)CCCCN)ccc1C21OC(=O)c2ccccc21` [KA-M, (Lys-Ala)2 Rho 110], the “Ratio of disease to normal” value worked out at 1.55 in experiment [1] (Dermatomyositis, monocytes); 12.14 in experiment [1] (JRA, monocytes); 7.08 in experiment [1] (Kawasaki's, monocytes); 14.08 in experiment [1] (Lupus, monocytes); 15.36 in experiment [1] (Rheumatic Fever, monocytes); 1.93 in experiment [2] (Dermatomyositis). Also, the “Ratio of disease to normal” value in experiment [2] (Inflam. Bowel Dis.) is recorded as 1.63; in experiment [2] (JRA), 1.46; in experiment [2] (Kawasaki's), 1.32; in experiment [2] (Lupus), 1.06; in experiment [2] (Rheumatic Fever), 2.07.

Consider `N=C(N)NCCC[C@H](N)C(=O)NCC(=O)N[C@@H](CCC(=O)O)C(=O)N[C@@H](CO)C(=O)Nc1ccc2c(c1)Oc1cc(NC(=O)[C@H](CO)NC(=O)[C@H](CCC(=O)O)NC(=O)CNC(=O)[C@@H](N)CCCNC(=N)N)ccc1C21OC(=O)c2ccccc21` (stereo partly drawn) [RGES, (Arg-Gly-Glu-Ser)2 Rho 110] (I: H-RGES / II: H-RGES; linker I:C-II:C via Rhodamine110), for which the “Ratio of disease to normal” value in experiment [1] (Dermatomyositis, monocytes) was determined as 5.22; in experiment [1] (setting [3]), 6.02; in experiment [1] (JRA, monocytes) it was 3.98; in experiment [1] (Kawasaki's, monocytes) it was 4.65; in experiment [1] (Lupus, monocytes), 3.03; in experiment [1] (Rheumatic Fever, monocytes) it was 6.52. The “Ratio of disease to normal” value was determined as 2.06 in experiment [2] (Dermatomyositis); 1.96 in experiment [2] (Inflam. Bowel Dis.); 1.43 in experiment [2] (JRA); 1.43 in experiment [2] (Kawasaki's); 1.84 in experiment [2] (Lupus); 2.04 in experiment [2] (Rheumatic Fever).

In the case of `CC(C)[C@H](N)C(=O)N[C@@H](CCCCN)C(=O)Nc1ccc2c(c1)Oc1cc(NC(=O)[C@H](CCCCN)NC(=O)[C@@H](N)C(C)C)ccc1C21OC(=O)c2ccccc21` [VK, (Val-Lys)2 Rho 110], the “Ratio of disease to normal” value in experiment [1] (Dermatomyositis, monocytes) amounted to 1.42; in experiment [1] (setting [3]), 3.08; in experiment [1] (JRA, monocytes), 5.94; in experiment [1] (Kawasaki's, monocytes) it was 5.38; in experiment [1] (Lupus, monocytes) it was 1.64; in experiment [1] (Rheumatic Fever, monocytes), 1.32. Further, the “Ratio of disease to normal” value in experiment [2] (Dermatomyositis) was 1.39; in experiment [2] (Inflam. Bowel Dis.), 1.08; in experiment [2] (Kawasaki's) it was 1.19; in experiment [2] (Lupus) it was 1.25.

In the case of `CC(C)[C@H](N)C(=O)N[C@@H](CCCCN)C(=O)Nc1ccc2c(c1)Oc1cc(NC(=O)[C@H](CCCCN)NC(=O)[C@@H](N)C(C)C)ccc1C21OC(=O)c2ccccc21` [VK-M, (Val-Lys)2 Rho 110 (modified)], the “Ratio of disease to normal” value is reported as 3.45 in experiment [1] (Dermatomyositis, monocytes); 1.41 in experiment [1] (setting [3]); 3.49 in experiment [1] (JRA, monocytes); 11.37 in experiment [1] (Lupus, monocytes); 8.67 in experiment [1] (Rheumatic Fever, monocytes); 7.71 in experiment [2] (JRA).

Turning to `O=C(NCC(=O)N1CCC[C@H]1C(=O)Nc1ccc2c(c1)Oc1cc(NC(=O)[C@@H]3CCCN3C(=O)CNC(=O)OCc3ccccc3)ccc1C21OC(=O)c2ccccc21)OCc1ccccc1` [Z-GP, (carbobenzyloxycarbonyl-Gly-Pro)2 Rho 110], the “Ratio of disease to normal” value in experiment [1] (setting [3]) was found to be 1.64; in experiment [1] (JRA, monocytes), 1.34; in experiment [1] (Kawasaki's, monocytes), 4.06; in experiment [1] (Lupus, monocytes) it was 1.88; in experiment [1] (Rheumatic Fever, monocytes), 3.56; in experiment [2] (Dermatomyositis), 1.73. Moreover, the “Ratio of disease to normal” value is 1.73 in experiment [2] (Inflam. Bowel Dis.), 1.29 in experiment [2] (JRA), 1.93 in experiment [2] (Lupus) and 3.23 in experiment [2] (Rheumatic Fever).

Take `O=C(NCC(=O)N1CCC[C@H]1C(=O)Nc1ccc2c(c1)Oc1cc(NC(=O)[C@@H]3CCCN3C(=O)CNC(=O)OCc3ccccc3)ccc1C21OC(=O)c2ccccc21)OCc1ccccc1` [Z-GP-M, (carbobenzyloxycarbonyl-Gly-Pro)2 Rho 110 (modified)]: the “Ratio of disease to normal” value came out at 3.05 in experiment [1] (Dermatomyositis, monocytes); 3.33 in experiment [1] (setting [3]); 1.79 in experiment [1] (JRA, monocytes); 4.47 in experiment [1] (Kawasaki's, monocytes); 1.92 in experiment [1] (Lupus, monocytes); 2.99 in experiment [1] (Rheumatic Fever, monocytes). Further, the “Ratio of disease to normal” value was 3.45 in experiment [2] (Dermatomyositis), 3.44 in experiment [2] (Kawasaki's), 2.09 in experiment [2] (Lupus) and 4.09 in experiment [2] (Rheumatic Fever).

Turning to `C[C@@H](O)[C@H](NC(=O)OCc1ccccc1)C(=O)N1CCC[C@H]1C(=O)Nc1ccc2c(c1)Oc1cc(NC(=O)[C@@H]3CCCN3C(=O)[C@@H](NC(=O)OCc3ccccc3)[C@@H](C)O)ccc1C21OC(=O)c2ccccc21` [Z-TP6.5, (carbobenzyloxycarbonyl-Thr-Pro)2 Rho 110 (pH 6.5)], the “Ratio of disease to normal” value was 3.12 in experiment [1] (Dermatomyositis, monocytes); 2.83 in experiment [1] (setting [3]); 8.33 in experiment [1] (JRA, monocytes); 2.29 in experiment [1] (Lupus, monocytes); 5.37 in experiment [1] (Rheumatic Fever, monocytes); 3.87 in experiment [2] (Dermatomyositis). Also, the “Ratio of disease to normal” value in experiment [2] (Inflam. Bowel Dis.) is reported as 3.03; in experiment [2] (JRA) it was 2.89; in experiment [2] (Kawasaki's), 5.85; in experiment [2] (Rheumatic Fever), 7.19.
